Measured values as given in paper PMC10973839, “CHF6297: a novel potent and selective p38 MAPK inhibitor with robust anti-inflammatory activity and suitable for inhaled pulmonary administration as dry powder” (Frontiers in Pharmacology, 2024).

Key:
[1] = system: TS-induced neutrophil influx in BALF; test: BALF neutrophilia induced by tobacco smoke exposure in mice; type: in vivo, C57BL6J female mice; conditions: 0.3 mg/kg i.n., 4 days TS exposure
Method: C57BL6J female mice aged 9–10 weeks (Harlan Laboratories S.r.l) in groups of 8 were exposed, via whole-body inhalation, twice daily 1 h apart, for 4 consecutive days, to the tobacco smoke (TS) (generated using “Marlboro Gold: 9 mg of tar and 0.7 mg nicotine”) of two cigarettes/exposure on days 1 and 2, three cigarettes/exposure on day 3, and four cigarettes/exposure on the last exposure day in clear polycarbonate chambers (27 cm × 16 cm × 12 cm). The smoke was introduced into the exposure chambers (21100-790 Ugo Basile, Biological Research Instruments, Comerio, Varese, Italy), with the airflow generated by using a mechanical ventilator (7025 Rodent Ventilator, Ugo Basile). Each exposure chamber was connected to a different ventilator set at a rate of 100 mL/min (frequency: 50 strokes/min; volume: 2 mL/stroke). At regular intervals (after burning two cigarettes), the exposure chambers were opened and aired. Sham and control mice were exposed to air only in the same manner for the same duration of time.
CHF6297 (0.03 and 0.3 mg/kg) and budesonide (0.3 mg/kg), our reference compound and vehicle (0.2% Tween 80 in saline), respectively, were administered intranasally in a volume of 30 µL, 1 h before and 5 h after TS exposure under light isoflurane anesthesia.
A BAL was performed using a volume of 0.6 mL of phosphate-buffered saline that was gently instilled and withdrawn three times using a 12-mL syringe. BALF cells were separated by centrifugation (10 min at 3,070 g), and the supernatant was removed. The resulting cell pellet was resuspended in a known volume of PBS, and the total cell numbers were calculated by counting a stained (Turk’s stain) aliquot under a microscope using a hemacytometer. The cell pellet was resuspended to approximately 10^5 cells per ml, and cytospin slides were prepared by centrifugation (8 min at 72.26 g; Shandon Cytospin; Thermo Shandon Ltd., Runcorn, Cheshire, United Kingdom). The slides were air-dried and stained using Wright–Giemsa stain, following the manufacturer’s instructions. A differential cell count was performed using light microscopy. Approximately 400 cells were counted from each slide. The cells were identified using standard morphometric techniques.

[2] = system: IAV-induced airway neutrophilia in HDM-challenged mice; test: Influenza virus A (H3N2)-induced exacerbation in HDM-sensitized mice; type: in vivo, Balb/c mice; conditions: 100 μg/kg twice daily for 3 days
[3] = system: i.v. LPS-induced TNF-α in blood; test: Intravenous LPS-induced TNF-α release in rat blood; type: in vivo, rats; conditions: oral gavage, i.v. LPS
rat PBMCs = test: TNF-α release in LPS-stimulated PBMCs; type: cell-based; conditions: PBMC, LPS 10 ng/mL, 18 h
Method: Peripheral blood mononuclear cells (PBMCs) were isolated from the blood of healthy human volunteers and Wistar rats (250–350 gr; Charles River, Calco, Italy) using a standard density gradient centrifugation technique. The citrated blood was placed onto Histopaque^TM and centrifuged. The PBMCs were then removed from the density gradient interface and washed in phosphate-buffered saline (PBS). The PBMCs were suspended in RPMI 1640 medium (without serum), aliquoted into a 96-well plate, and incubated at 37°C for 3 h in a humidified incubator. After incubation, the medium was replaced (with a medium containing 1% fetal bovine serum), and the plate was incubated at 37°C, for 1 h, in the presence of a test compound or the appropriate vehicle. LPS (10 ng/mL), or an appropriate vehicle control, was then added to the cells, and the plate was returned to the incubator for 18 h. Cell-free supernatants were removed and assayed for TNF-α levels using MSD plates on the SECTOR Imager 6000 (Meso Scale).

HBSMCs = test: CSE-evoked IL-8 release in human bronchial smooth muscle cells; type: cell-based
Method: Cigarette smoke extract (CSE) was generated as reported previously ([Moretto et al., 2012]). Briefly, aqueous CSE was obtained from the combustion of four cigarettes (Marlboro Red, 12 mg tar, 0.9 mg nicotine each) bubbled through 50 mL of the culture medium and subsequently filtered through a 0.2-μm-pore filter (Millipore, Billerica, MA). To ensure reproducibility among different CSE batches, the absorbance [optical density (OD)] measured at 320 nm was used as a measure of the “strength” of the extract. Dilutions were made with culture media to obtain the desired absorbance. The CSE was freshly prepared on the day of the experiment and immediately used after preparation. Human bronchial smooth muscle cells (HBSMCs) were seeded in DMEM with 10% FBS (50 U/mL penicillin, 0.05 mg/mL streptomycin, and 2 mM L-glutamine) in 48-well plates at a density of 10,000 cells/well, grown to ∼80%–90% confluence and incubated overnight in serum-free DMEM before treatments. All the treatments were performed in serum-free DMEM. The cells were pretreated for 30 min with either the vehicle or CHF6297 or losmapimod before stimulation with freshly prepared CSE, TNF-α, (1 ng/mL), or the vehicle for 18 h at 37°C. Human IL-8 was measured in the collected supernatants by use of a paired-antibody quantitative ELISA kit (BioSource International, Camarillo, CA).

Structure (SMILES) | neutrophils in BALF [1] | neutrophils in BAL fluid [2] | effect on TNF-α levels in blood [3] | IC50 (rat PBMCs) | maximum inhibition of IL-8 (HBSMCs; CSE-evoked) | IC50 (HBSMCs; Homo sapiens, 18 h)
CCCC1O[C@@H]2C[C@H]3[C@@H]4CCC5=CC(=O)C=C[C@]5(C)[C@H]4[C@@H](O)C[C@]3(C)[C@]2(C(=O)CO)O1 (stereo partly drawn) [budesonide, reference compound] | 0.5 ± 0.1 × 10^5 cells/mL | 2.08 ± 0.23 × 10^5 cells/mL |  |  |  | 
Cc1c(F)cc(C(=O)NC2CC2)cc1-c1ccc(C(=O)NCC(C)(C)C)cn1 [losmapimod, reference compound] |  |  | marked reduction in TNF-α levels | 11.9 nM | 100% | 9.13 nM
